Measured values taken from patent US20070134185A1, “Use of dithiols in a hair-perming composition” (priority 2003, published 2007).

What was measured:
[1] = Permanent waving of hair locks with reducing lotion; details: reducing lotion 20.83 g Compound A1 per 100 g, pH = 7, 15 minutes on curled hair, fixing with hydrogen peroxide at 8 volumes pH=3
Protocol: A reducing lotion is prepared:
The above lotion is applied to locks of grey hair which is 90% white. Curls are produced using curlers. The lotion is allowed to act on the curled hair for 15 minutes. The hair is rinsed with water. A conventional fixing composition based on hydrogen peroxide (hydrogen peroxide at 8 volumes, pH=3), is applied. Another rinsing is carried out. The curlers are removed.

[2] = Oxidation dyeing of permanently waved hair; details: compared with identical permanent waving with thioglycolic acid instead of A1, at equivalent curliness
[3] = cited from earlier work

Row | Compound | curliness [1] | colour after 7.44 CRESCENDO oxidation dye on permanently waved hair [2] | solubility in water [3]
1 | CN(C(=O)CS)N(C)C(=O)CS [Compound A1] | Good curliness | closer to that obtained on non-permanently waved hair | –
2 | O=S(=O)(CCS)CCS [BMS, bis(2-mercaptoethyl)sulphone] | – | – | very sparingly soluble in water
